Measurements reported in patent EP4768480A1, “ALKOXY THIOPHENE ACYL ARYLAMINE COMPOUNDS AND USE THEREOF” (priority 2024, dated 2025).

Biological target: T1, SMS2 (Homo sapiens, UniProt Q8NHU3)
T1 construct: CAO, Yu research team, National Protein Scientific Center (Shanghai); supplied by an outside laboratory, not a commercial vendor
T1 sequence (Q8NHU3 1-365): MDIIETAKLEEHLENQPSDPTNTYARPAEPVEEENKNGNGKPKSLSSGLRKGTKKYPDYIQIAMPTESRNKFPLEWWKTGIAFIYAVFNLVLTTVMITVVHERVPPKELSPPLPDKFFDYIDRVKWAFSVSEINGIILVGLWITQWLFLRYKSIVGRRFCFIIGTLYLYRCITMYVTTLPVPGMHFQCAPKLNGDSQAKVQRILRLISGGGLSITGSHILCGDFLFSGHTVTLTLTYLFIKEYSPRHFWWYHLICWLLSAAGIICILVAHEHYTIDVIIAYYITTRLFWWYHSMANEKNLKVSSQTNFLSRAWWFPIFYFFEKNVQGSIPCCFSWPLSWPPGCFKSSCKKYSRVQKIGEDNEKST
Assay: SMS2 inhibitory activity in vitro, HPLC fluorescence quantitative detection (C6-NBD-ceramide to C6-NBD-SM)
Format: biochemical
Settings: 1 µM test compound; SMS2 pure enzyme; 37°C, 30 minutes; average of two measurements; read-out: Inhibition rate on SMS2 at C/µM 1
Excerpt: • 1. Electro-thermostatic water bath, from Shanghai Yiheng Technology Co., Ltd.); • 2. Vortex Mixer, with model ID of XW-80A, from Shanghai Jingke Industrial Co., Ltd.; • 3. […] High Performance Liquid Chromatography Agilent 1100, equipped with a quaternary pump, vacuum degassing, and FLD fluorescence detector, from Agilent Technologies, Palo Alto, CA, USA; • 5. HPLC column COSMOSIL 5C18-MS-II (4.6mm I.D. X 250mm); • 6. […] The organic solvents used in the present disclosure were purchased from Shanghai National Reagent Company, wherein methanol was pure chromatography; water was ultra-pure water which is filtrated by Milli-Q pump, deionized and ultra-filtrated with 0.22 µm membrane; and other biological consumables were purchased from domestic companies; • 8. Preparation of test compound solutions: each test compound was accurately weighed and dissolved in an appropriate volume of DMSO to prepare a 10 mmol/L stock solution. The stock solution was then diluted with an appropriate volume of DMSO to achieve the desired working concentration; • 9. SMS2 pure enzyme, DDM solution and buffer solution were provided by CAO, Yu research team from National Protein Scientific Center (Shanghai).
79 µl of the diluted enzyme solution were transferred into a 1.5 mL EP tube, 1 µl of inhibitor DMSO solution were added thereto, vortexing for 15 seconds, followed by standing at room temperature for 5 minutes. 20 µl of a mixed solution of DMPC and C6-NBD-ceramide were added, vortexing for 15 seconds, and incubated at 37°C for 30 minutes. 200 µl of anhydrous ethanol were added to quench the reaction, vortexing for 15 seconds. 200 µl of the reaction solution were taken out and stored at 4°C and avoided light for HPLC detection.
The peak area values of A(sm) and A(ceramide) in the HPLC chromatogram corresponding to C6-NBD-SM and C6-NBD-Ceramide in the DMSO group and inhibitor group samples were analyzed and recorded, and the inhibition rate of the test compound was calculated according to the following formula. Inhibition rate = (Peak area values of DMSO group−Peak area values of Inhibitor group)/(Peak area values of DMSO group) × 100% [formula]

| Structure (SMILES) | inhibition at 1 µM [%] |
| --- | --- |
| Cc1cccc(COc2ccsc2C(=O)Nc2cccnc2)c1 [1-43, 3-(3-methylbenzyloxy)-N-(pyridin-3-yl)thiophene-2-carboxamide] | 69 |
| CCc1ccccc1COc1ccccc1C(=O)Nc1cccnc1 [12-1 (LY93), 2-(2-ethylbenzyloxy)-N-(pyridin-3-yl)benzamide, reference compound] | 66 |
| CCc1ccccc1COc1ccsc1C(=O)Nc1cccnc1 [1-81, 3-(2-ethylbenzyloxy)-N-(pyridin-3-yl)thiophene-2-carboxamide] | 73 |
| O=C(Nc1ccc(F)nc1)c1sccc1OCc1ccccc1 [12-13] | 9 |
| CCCCCCOc1ccc(Cl)cc1COc1ccsc1C(=O)Nc1cccnc1 [1-73, 3-(5-chloro-2-(hexyloxy)benzyloxy)-N-(pyridin-3-yl)thiophene-2-carboxamide] | 90 |
| O=C(Nc1cccnc1)c1sccc1OCc1c(F)c(F)cc(F)c1F [1-67, 3-(2,3,5,6-tetrafluorobenzyloxy)-N-(pyridin-3-yl)thiophene-2-carboxamide] | 67 |
| O=C(Nc1nncs1)c1sccc1OCc1ccccc1 [12-3, 3-benzyloxy-N-(1,3,4-thiadiazol-2-yl)thiophene-2-carboxamide] | -8 |
| O=C(Nc1cccnc1)c1sccc1OCc1cc(Cl)ccc1Cl [1-89, 3-(2,5-dichlorobenzyloxy)-N-(pyridin-3-yl)thiophene-2-carboxamide] | 74 |
| COc1cccc(Cl)c1COc1ccsc1C(=O)Nc1cccnc1 [1-63, 3-(2-chloro-6-methoxybenzyloxy)-N-(pyridin-3-yl)thiophene-2-carboxamide] | 80 |
| Cc1ccc(NC(=O)c2sccc2OCc2ccccc2)cn1 [12-12] | 7 |
| O=C(Nc1cccnc1)c1sccc1OCc1csc2ccccc12 [1-66, 3-(benzo[b]thiophen-3-ylmethoxy)-N-(pyridin-3-yl)thiophene-2-carboxamide] | 86 |
| O=C(Nc1cccnc1)c1sccc1OCc1cccc(C(F)(F)F)c1 [1-97, 3-(3-trifluoromethylbenzyloxy)-N-(pyridin-3-yl)thiophene-2-carboxamide] | 80 |
| O=C(Nc1cccnc1)c1sccc1OCc1ccccc1C(F)(F)F [1-59, 3-(2-(trifluoromethyl)benzyloxy)-N-(pyridin-3-yl)thiophene-2-carboxamide] | 71 |
| CCCCCCCOc1cc(Cl)ccc1COc1ccsc1C(=O)Nc1cccnc1 [1-72, 3-(4-chloro-2-(heptyloxy)benzyloxy)-N-(pyridin-3-yl)thiophene-2-carboxamide] | 90 |
| Cc1cc(OCc2ccccc2)c(C(=O)Nc2cccnc2)s1 [1-40, 3-benzyloxy-5-methyl-N-(pyridin-3-yl)thiophene-2-carboxamide] | 23 |
| CC(C)Oc1ccccc1COc1ccsc1C(=O)Nc1cccnc1 [1-82, 3-(2-isopropoxybenzyloxy)-N-(pyridin-3-yl)thiophene-2-carboxamide] | 80 |
| O=C(Nc1cc(F)ccn1)c1sccc1OCc1ccccc1 [12-4, 3-benzyloxy-N-(4-fluoropyridin-2-yl)thiophene-2-carboxamide] | 3 |
| CCCCCOc1cccc(Cl)c1COc1ccsc1C(=O)Nc1cccnc1 [1-38, 3-(2-(n-pentyloxy)-6-chlorobenzyloxy)-N-(pyridin-3-yl)thiophene-2-carboxamide] | 91 |
| O=C(Nc1cncc(F)c1)c1sccc1OCc1ccccc1 [1-92, 3-benzyloxy-N-(5-fluoropyridin-3-yl)thiophene-2-carboxamide] | 50 |
| O=C(Nc1cccnc1)c1sccc1OCc1ccccc1F [1-44, 3-(2-fluorobenzyloxy)-N-(pyridin-3-yl)thiophene-2-carboxamide] | 54 |
| COc1ccc2ccccc2c1COc1ccsc1C(=O)Nc1cccnc1 [1-16, 3-[(2-methoxynaphthalen-1-yl)methoxy]-N-(pyridin-3-yl)thiophene-2-carboxamide] | 78 |
| O=C(Nc1cccnc1)c1sccc1OCc1cc(OP(=O)(O)O)ccc1Cl [1-26] | 13 |
| O=C(Nc1cccnc1)c1cscc1OCc1ccccc1 [1-100, 4-(benzyloxy)-N-(pyridin-3-yl)thiophene-3-carboxamide] | 60 |
| O=C(Nc1cccnc1)c1sccc1OCc1ccccc1Br [1-86, 3-(2-bromobenzyloxy)-N-(pyridin-3-yl)thiophene-2-carboxamide] | 86 |
| O=C(Nc1cccnc1)c1sccc1OCc1ccccc1-c1ccccc1 [1-94, 3-[(1,1'-Biphenyl-2-yl)methoxy]-N-(pyridin-3-yl)thiophene-2-carboxamide] | 52 |

Same assay, conditions: 10 µM test compound; SMS2 pure enzyme; 37°C, 30 minutes; average of two measurements; read-out: Inhibition rate on SMS2 at C/µM 10

| Structure (SMILES) | inhibition at 10 µM [%] |
| --- | --- |
| O=C(Nc1ccc(C(F)(F)F)nc1)c1sccc1OCc1ccccc1 [12-14] | 10 |
| O=C(Nc1cccnc1)c1cccnc1OCc1ccccc1 [12-18, 2-benzyloxy-N-(pyridin-3-yl)pyridin-3-carboxamide] | 22 |
| O=C(Nc1cccnc1)c1sccc1OCc1ccc2ccccc2c1 [1-11, 3-(naphthalen-2-ylmethoxy)-N-(pyridin-3-yl)thiophene-2-carboxamide] | 50 |
| O=C(Nc1cccnn1)c1sccc1OCc1ccccc1 [1-4, 3-benzyloxy-N-(pyridazin-3-yl)thiophene-2-carboxamide] | 63 |
| COC(=O)c1ccccc1COc1ccsc1C(=O)Nc1cccnc1 [1-22, 2-[(2-(pyridin-3-ylcarbamoyl)thiophene-3-yl)oxymethyl]methyl benzoate] | 81 |
| CCCCOc1ccsc1C(=O)Nc1cccnc1 [1-95] | 50 |
| O=C(Nc1cccnc1)c1sccc1OCc1ccccc1[N+](=O)[O-] [1-21, 3-(2-nitrobenzyloxy)-N-(pyridin-3-yl)thiophene-2-carboxamide] | 93 |
| O=C(Nc1cccnc1)c1sccc1OCc1ccc(OC(F)(F)F)cc1 [1-54, 3-(4-(trifluoromethoxy)benzyloxy)-N-(pyridin-3-yl)thiophene-2-carboxamide] | 57 |
| O=C(Nc1cccnc1)c1sc([N+](=O)[O-])cc1OCc1ccccc1 [1-14, 3-benzyloxy-5-nitro-N-(pyridin-3-yl)thiophene-2-carboxamide] | 50 |
| O=C(Nc1cccnc1)c1sccc1OCc1cccc(OC(F)(F)F)c1 [1-55, 3-(3-(trifluoromethoxy)benzyloxy)-N-(pyridin-3-yl)thiophene-2-carboxamide] | 65 |
| O=C(Nc1cccnc1)c1sccc1OCc1cccc2c1Oc1c(F)c(F)c(F)c(F)c1O2 [1-19, N-(pyridin-3-yl)-3-[(6,7,8,9-tetrafluorodibenzo[b,e][1,4]dioxin-1-yl)methoxy]thiophene-2-carboxamide] | 77 |
| CCCCCCOc1cccc(COc2ccsc2C(=O)Nc2cccnc2)c1 [1-79, 3-(3-(hexyloxy)benzyloxy)-N-(pyridin-3-yl)thiophene-2-carboxamide] | 60 |
| CCCCCCCCOc1ccsc1C(=O)Nc1cccnc1 [1-96, 3-octyloxy-N-(pyridin-3-yl)thiophene-2-carboxamide] | 50 |
| O=C(Nc1cncs1)c1sccc1OCc1ccccc1 [1-65, 3-benzyloxy-N-(thiazol-5-yl)thiophene-2-carboxamide] | 61 |
| Cc1ncccc1NC(=O)c1sccc1OCc1ccccc1 [1-68, 3-benzyloxy-N-(2-methylpyridin-3-yl)thiophene-2-carboxamide] | 50 |
| N#Cc1ccccc1COc1ccsc1C(=O)Nc1cccnc1 [1-50, 3-(2-cyanobenzyloxy)-N-(pyridin-3-yl)thiophene-2-carboxamide] | 66 |
| O=C(Nc1ccccn1)c1sccc1OCc1ccccc1 [1-61, 3-benzyloxy-N-(pyridin-2-yl)thiophene-2-carboxamide] | 50 |
| O=C(Nc1cccnc1)c1sccc1OCc1c(Cl)cccc1Cl [1-3, 3-(2,6-dichlorobenzyloxy)-N-(pyridin-3-yl)thiophene-2-carboxamide] | 97 |

Same assay, conditions: SMS2 pure enzyme

| Structure (SMILES) | IC50 [nM] |
| --- | --- |
| CCc1ccccc1COc1ccccc1C(=O)Nc1cccnc1 [12-1 (LY93), 2-(2-ethylbenzyloxy)-N-(pyridin-3-yl)benzamide, reference compound] | 285 |
